Patent US20180216113A1, “METHODS FOR REDUCING PROTEOTOXICITY” (priority 2015, published 2018)

Columns and labels:
[1] = test system: hsp-16.2p::GFP; assay: hsp-16.2p::GFP reporter induction (cytosolic HSR / MCSR); type: in vivo, C. elegans; details: for hsp-6 RNAi-induced MCSR (hsp-16.2p::GFP): ceramide fed worms, 100μg/ml, 48 hours, on hsp-6 RNAi
Method: (§1) Bacterial feeding of RNAi experiments was conducted during adulthood to exclude target genes' function during developmental stages. Synchronized eggs were harvested by bleaching and nematodes were grown on plates with E. coli OP50 until they reached early adulthood before they were transferred to RNAi plates. Day 1 adult worms were then grown on the RNAi plates with E. coli HT115 that carried the RNAi construct for 3 days at 20° C. Worms were imaged using a fluorescent microscope for green fluorescent protein (GFP) induction or applied to COPAS Biosorter (Union Biometrica) to quantify the level of GFP induction. The temperature-sensitive sterile strains were grown at 15° C. until they were gravid adults. Then, the cohorts were shifted to 25° C. Day 1 adult worms were transferred to RNAi plates for 2 days before images were taken. For the double RNAi treatment, E. coli carrying the indicated RNAi constructs are mixed 1:1 ratio.
(§2) Lipids, Inc. Lyophilized lipids were dissolved in Methanol with sonication. Ceramides were diluted to 100μg/ml and spotted on top of the OP50 plates or RNAi plates. Worms were transferred to Ceramide-spotted plates at L4 stage and the images were taken after 48 hours. Cardiolipin was fed to bacteria for 2-4 hours (OP50 or RNAi construct-carrying HT115) with final concentration of 100μg/ml. Then the bacteria were spotted on plates before transferring the worms. L4 worms were then transferred to the cardiolipin spotted plates and images were taken after 48 hours.
Worms were grown up to day 1 adults and underwent heat shock at 34° C. for 2 hours, then recovered at 20° C. for overnight before taking images. For the Nile Red Staining experiment, worms were recovered for 48 hours.
(§3) Perhexiline (Sigma) powder was dissolved in dimethylsulfoxide (DMSO) (100 mM). The stock was diluted to 1 mM and 100 μl was spotted on the E. coli OP50 plates or HT115 RNAi plates and dried before transferring the worms. Worms were transferred to new perhexiline plates every other day for three to four days until harvested for following experiment. […]

[2] = test system: hsp-6p::GFP; assay: hsp-6p::GFP / hsp-60p::GFP reporter induction (UPRmt); type: in vivo, C. elegans; details: for UPRmt caused by cco-1 knockdown: ceramide fed reporter worms
Method: as §1, §2
(§4) Perhexiline (Sigma) powder was dissolved in dimethylsulfoxide (DMSO) (100 mM). The stock was diluted to 1 mM and 100 μl was spotted on the E. coli OP50 plates or HT115 RNAi plates and dried before transferring the worms. Worms were transferred to new perhexiline plates every other day for three to four days until harvested for following experiment. For the perhexiline treatment with multiple numbers of RNAi (e.g., FIG. 4C), worms were transferred to the S-media containing HT115 RNAi bacteria, 100 μM of perhexiline and 1 mM of IPTG in a 96-well plate for 48 hrs.

[3] = test system: human primary fibroblasts; assay: Triglyceride content of human primary fibroblasts; type: cell-based; details: human primary fibroblasts (GFP expressing cells) after perhexiline treatment
Method: (§5) To quantify triglyceride content, a Triglyceride quantification kit (Bio Vision) was used according to the manufacturer's protocol. Briefly, worms were harvested from plates and washed with M9 three times. Worms were homogenized with 5% NP-40 in water using a glass dounce homogenizer to extract mostly the intestinal tissues by checking the lysates under a dissecting microscope. Worms looked like empty shells once the intestinal tissues were extracted out. The samples were heated slowly at 90° C. for 5 minutes and cooled down to room temperature. Heating was repeated once more prior to centrifugation of the samples for 2 minutes to bring down debris. Supernatant was removed and mixed with enzymes provided in the kit according to the manufacturer's manual. Measurement was done using microplate reader M1000 (TECAN) at Ex/Em=535/590 nm. Calculations were done after subtracting 0 standard readings as a background.
For the mammalian cell culture samples, cells were washed with cold PBS and homogenized with 5% NP-40 in water using a syringe with 22 G needle, followed by the procedure shown above. All experiments were done with three biological repeats.
For the cell culture experiments, cells were grown to 90% confluent and washed with PBS. Indicated concentrations of perhexiline were diluted in the cell growth media with serum and replaced in cell culture dishes. […]

[4] = test system: C. elegans; assay: Oxygen consumption rate of whole worms (Seahorse); type: in vivo; details: perhexiline treatment of hsp-6 RNAi animals
Method: Oxygen consumption of whole worms was measured using the Seahorse XF96 (Seahorse Bioscience). Worms were washed off from plates with M9 to remove residual bacteria. Then, 50 worms (10 worms/well/100 μl) were transferred to the microplate. 50 μl of M9 was added to the wells and the oxygen consumption rate was measured. All experiments were repeated at least three times.

[5] = test system: polyglutamine repeats in Huntingtin exon 1 (Q78); assay: Filter trap assay of polyQ aggregates in human primary fibroblasts; type: cell-based; details: perhexiline 400 nM, 48 hours
Method: The following siRNAs were tested for depleting the indicated genes in the human primary fibroblasts or HEK cells: hspa9 siRNA (#1 and #2), accl siRNA (#1 and #2), fas siRNA (#1 and #2) (Ambion). Scrambled siRNA with no known mammalian homology (non-targeting siRNA #1 (Ambion) was used as negative control. Double siRNA treatment was performed by mixing two different siRNAs indicated at 1:1 ratio. Cells were transfected with the siRNAs using JetPrime according to the manufacturer's manual and then harvested after 48 h. Control vector-transfected cells were used as controls for all the experiments.
100μg of protein samples were applied on to cellulose acetate membrane with 0.22 μm pore size (Schlechtes+Schule), assembled in vacuum slot blotter (Bio-Dot, Bio-Rad). Membrane was washed with 0.2% SDS five times on the blotter and subjected to antibody incubation for detecting aggregated protein retained on the membrane. Briefly, membrane was incubated with anti-GFP antibody (1:3000 dilution in 5% milk in PBS, Roche) overnight in a cold room. Membrane was washed with PBST (PBST with 0.05% Tween-20) for three times, then incubated with secondary antibody (donkey anti-mouse antibody conjugated with HRP, 1:5000 dilution in 5% milk in PBS, Jackson Immuno Research). […]

[6] = test system: cytosolic HSP70; assay: Western blotting of cytosolic HSP70 in human primary fibroblasts; type: cell-based; details: human primary fibroblasts (GFP expressing cells)
Method: The following siRNAs were tested for depleting the indicated genes in the human primary fibroblasts or HEK cells: hspa9 siRNA (#1 and #2), accl siRNA (#1 and #2), fas siRNA (#1 and #2) (Ambion). Scrambled siRNA with no known mammalian homology (non-targeting siRNA #1 (Ambion) was used as negative control. Double siRNA treatment was performed by mixing two different siRNAs indicated at 1:1 ratio. Cells were transfected with the siRNAs using JetPrime according to the manufacturer's manual and then harvested after 48 h. Control vector-transfected cells were used as controls for all the experiments. For SDS-PAGE, 20-40μg of protein samples were loaded on 4-12% bis-tris SDS gel (Invitrogen). The gel was transferred to nitrocellulose membrane (GE) using XCell II blot module (Invitrogen). Then, membranes were incubated with antibodies and exposed to film as described above. mtHSP70 (Abcam), α-Tubulin (Sigma), GFP (Roche), and cytosolic HSP70 (HSP70/HSP72, Enzo life) were used to probe the membrane. The western blot bands' intensity was measured using ImageJ software. For the cell culture experiments, cells were grown to 90% confluent and washed with PBS. Indicated concentrations of perhexiline were diluted in the cell growth media with serum and replaced in cell culture dishes. After 48 hours, cells were washed with PBS and harvested for following experiments.

[7] = test system: C. elegans; assay: Triglyceride quantification in worms; type: in vivo; details: perhexiline treated worms
Method: as §5
Sample Triglyceride control (C)=B/V×D nmol/μl or mM
as §3

[8] = test system: aggregated PolyQ proteins (Q35::YFP); assay: Filter trap assay of aggregated PolyQ proteins in worms; type: in vivo, C. elegans; details: AM140 worms
Method: 100μg of protein samples were applied on to cellulose acetate membrane with 0.22 μm pore size (Schlechtes+Schule), assembled in vacuum slot blotter (Bio-Dot, Bio-Rad). Membrane was washed with 0.2% SDS five times on the blotter and subjected to antibody incubation for detecting aggregated protein retained on the membrane. Briefly, membrane was incubated with anti-GFP antibody (1:3000 dilution in 5% milk in PBS, Roche) overnight in a cold room. Membrane was washed with PBST (PBST with 0.05% Tween-20) for three times, then incubated with secondary antibody (donkey anti-mouse antibody conjugated with HRP, 1:5000 dilution in 5% milk in PBS, Jackson Immuno Research). Membranes were washed with PBST three times and exposed to film after applying ECL solutions (Pierce) to visualize the protein bands.
as §4

SMILES	hsp-6 RNAi-induced MCSR (hsp-16.2p::GFP) [1]	UPRmt caused by cco-1 knockdown [2]	triglyceride levels [3]	overall oxygen consumption rate [4]	polyglutamine protein aggregation [5]	expression of cytosolic HSP70 [6]	fat accumulation (triglyceride content) [7]	levels of aggregated PolyQ proteins [8]	cytosolic hsp-16.2 expression ([1]; perhexiline treated hsp-16.2p::GFP;CF512 reporter worms)	induction of UPRmt (hsp-6p::GFP, hsp-60p::GFP) ([2]; perhexiline treated reporter worms)
CCCCCCCCCCCCC/C=C/[C@@H](O)[C@H](CO)NC(=O)CCCCCCCCCCCCCCCCCCC [C20 ceramide]	partially block	did not affect	–	–	–	–	–	–	–	–
CCCCCCCCCCCCC/C=C/[C@@H](O)[C@H](CO)NC(=O)CCCCCCCCCCCCCCCCCCCCC [C22 ceramide]	completely inhibited	did not affect	–	–	–	–	–	–	–	–
C1CCC(C(CC2CCCCN2)C2CCCCC2)CC1 (stereo not drawn) [perhexiline, 2-(2,2-dicyclohexylethyl)piperidine]	–	–	increased	did not further reduce	reduced	induce expression	increased	decreased levels	specifically induced	moderately induced
